Measurements as given in patent publication US20230241257A1, “BIOTIN-MODIFIED DIMER AND USE THEREOF” (THE UNIVERSITY OF TOKYO, priority 2020, published 2023).

Columns and labels:
Assay type in all cases: in vivo, mice (BALB/cSlc nu/nu)
[1] = test system: human stomach cancer cells (MKN-45); assay: Experiment 9: pharmacokinetics (6 h) of Cupid-scFv antibody (24 h before)+^211At-psyche-BR in MKN-45 cancer-bearing mouse models; conditions: six hours after administration, tumor on Day 8 after transplantation
Procedure: (§1) The present experiment used human stomach cancer cells (MKN-45) expressing carcinoembryonic antigen (CEA). 9-week-old male immunodeficient mice (BALB/cSlc nu/nu) were used. MKN-45 cells (1×10^7/0.1 ml) were transplanted into the mice's subcutis on the right shoulder dorsal side to produce cancer-bearing mouse models. When the tumor volume became a predetermined size (on Day 8 after the transplantation), the Cupid-scFv antibody was administered 100 μmol/0.1 ml via the caudal vein of each mouse. Twenty-four hours after administration of the Cupid-scFv antibody, ^211At-psyche-BR (about 0.30 MBq/100 ml) was administered via the caudal vein of each mouse. […] After that, the weights of blood, plasma, urine, tumor, and normal tissues/organs were measured, and the radioactivity thereof was then measured using a γ counter. The amounts of the ^211At-psyche-BR (radioactivity) accumulated in the blood, plasma, urine, tumor, and normal tissues/organs were calculated. […] Regarding accumulation of the ^211At-psyche-BR in the thyroid gland, since the weight of the thyroid gland could not be precisely measured, it was shown that the rate (% ID) of the ^211At-psyche-BR accumulated in the thyroid gland in the administered ^211At-psyche-BR.

[2] = test system: human stomach cancer cells (MKN-45); assay: Experiment 4: pharmacokinetics of ^211At-psyche-B in the absence of Cupid-scFv antibody in MKN-45 cancer-bearing mouse models; conditions: no Cupid-scFv antibody
Procedure: The present experiment used human stomach cancer cells (MKN-45) expressing carcinoembryonic antigen (CEA). 9-week-old male immunodeficient mice (BALB/cSlc nu/nu) were used. MKN-45 cells (1×10^7/0.1 ml) were transplanted into the mice's subcutis on the right shoulder dorsal side to produce cancer-bearing mouse models. The mice were divided into four groups when the tumor volume became a predetermined size (on Day 14 after the transplantation), and ^211At-psyche-B (about 0.25 MBq/[…]) was administered via the caudal vein of each mouse. One minute, 1 hour, 6 hours, and 24 hours after administration of the ^211At-psyche-B, the mice were euthanized by collecting whole blood from the heart of each mouse under isoflurane anesthesia, and tumor tissues and normal tissues/organs were then excised. Normal tissues/organs: skin (lower right limb), muscle (right gastrocnemius), heart, lung, spleen, pancreas, white fat (upper portion of right side testis), testis (both sides), stomach, stomach contents, small intestine (including contents), large intestine (including contents), liver, brown fat (interscapular), submandibular gland, thyroid gland (together with trachea), bone (right femur), brain, eyeball, bladder, and urine; the remaining residues were divided into three equal parts, and the three equal parts were defined to be residue-1, residue-2, and residue-3. After that, the weights of blood, plasma, urine, tumor, and normal tissues/organs were measured, and the radioactivity thereof was then measured using a γ counter. The amounts of the ^211At-psyche-B (radioactivity) accumulated in the blood, plasma, urine, tumor, and normal tissues/organs were calculated. That is to say, the rates (% ID/g) of the ^211At-psyche-B accumulated per unit weight (g) of the blood, plasma, urine, tumor, and normal tissues/organs, in the administered ^211At-psyche-B, were shown. Regarding accumulation of the ^211At-psyche-B in the thyroid gland, since the weight of the thyroid gland could not be precisely measured, it was shown that the rate (% ID) of the ^211At-psyche-B accumulated in the thyroid gland in the administered ^211At-psyche-B.

[3] = test system: human stomach cancer cells (MKN-45); assay: Experiment 11: pharmacokinetics (6 h) of Cupid-scFv antibody (24 h before)+^211At-psyche-B in MKN-45 cancer-bearing mouse models; conditions: six hours after administration, tumor on Day 8 after transplantation
Procedure: as §1, with “^211At-psyche-B” for “^211At-psyche-BR”, “^211At-psyche-B.” for “^211At-psyche-BR.”

Row | SMILES | Accumulation in the tumor [1] | Accumulation in the blood ([2]; after 1 minute) | Accumulation in the kidney ([2]; after 1 minute) | Accumulation in the liver ([2]; after 1 minute) | Accumulation in the tumor ([2]; after 1 minute) | Accumulation in the blood ([2]; after 1 hour) | Accumulation in the kidney ([2]; after 1 hour) | Accumulation in the liver ([2]; after 1 hour) | Accumulation in the tumor ([2]; after 1 hour) | Accumulation in the blood ([2]; after 6 hours) | Accumulation in the kidney ([2]; after 6 hours) | Accumulation in the liver ([2]; after 6 hours) | Accumulation in the thyroid gland ([2]; after 6 hours) | Accumulation in the tumor ([2]; after 6 hours) | Accumulation in the blood ([2]; after 24 hours) | Accumulation in the kidney ([2]; after 24 hours) | Accumulation in the liver ([2]; after 24 hours) | Accumulation in the tumor ([2]; after 24 hours) | Accumulation in the tumor [3]
1 | N=C1N[C@H]2[C@H](CS[C@H]2CCCCNC(=O)CCCCCC(=O)Nc2cc(NC(=O)CCCCCC(=O)NCCCC[C@@H]3SC[C@@H]4NC(=N)N[C@@H]43)cc(C(=O)NCCOCCOCCNC(=O)c3cccc([211At])c3)c2)N1 [^211At-psyche-BR] | 31.0±3.4 % ID/g | – | – | – | – | – | – | – | – | – | – | – | – | – | – | – | – | – | –
2 | N=C1N[C@H]2[C@H](CS[C@H]2CCCCC(=O)NCCCCCC(=O)Nc2cc(NC(=O)CCCCCNC(=O)CCCC[C@@H]3SC[C@@H]4NC(=N)N[C@@H]43)cc(C(=O)NCCOCCOCCNC(=O)c3cccc([211At])c3)c2)N1 [^211At-psyche-B] | – | 10.4±1.1 % ID/g | 61.4±6.5 % ID/g | 49.1±6.2 % ID/g | 0.3±0.05 % ID/g | 3.8±0.3 % ID/g | 57.2±3.1 % ID/g | 35.3±3.3 % ID/g | 1.0±0.1 % ID/g | 0.4±0.1 % ID/g | 17.7±1.9 % ID/g | 16.8±0.7 % ID/g | 0.16±0.06 % ID | 1.0±0.1 % ID/g | 0.2±0.04 % ID/g | 5.1±0.9% | 9.0±1.4% | 0.3±0.02% | 25.8±1.5 % ID/g
